Assay results published in patent US20160008493A1, “RADIOACTIVE SUBSTRATES FOR ALDEHYDE DEHYDROGENASE” (THE JOHNS HOPKINS UNIVERSITY, priority 2013, published 2016).

How the values were obtained:
ALDH [1] = test: In vitro radio uptake assay for ALDH activity, K562 cells; format: cell-based, human; details: 1 μCi, 37° C., 30 mins, radioactivity (CPM) by gamma counter, FIG. 1
Description: (§1) The K562 human chronic myelogenous leukemia cell line was purchased from American Type Culture Collection (CLL-243™) and maintained in suspension in IMDM media supplemented with 10% FBS. The murine leukemia cell line L1210 (ALDH^low) and L1210/cpa (ALDH^hi) were provided by Dr. Richard J. Jones (Johns Hopkins University) and maintained in suspension in RPMI 1640 supplemented with 10% FBS. Human glioma cell line, U87-tri was provided by Dr. John Laterra (Kennedy Krieger Institute) and maintained in DMEM media supplemented with 10% FBS. All cells were grown at 37° C. in a humidified incubator with 5% CO2.
(§2) ^125IBz-A-DA was dissolved in 100% DMSO at 10 mCi/50 μL concentration and stored at −20° C. as stock solutions. 25 μL of a stock was deprotected by mixing with the same volume of 2N HCl for 30 mins at room temperature and the resulting aldehyde (IBz-A) were neutralized by adding 350 μL of the assay buffer (PBS supplemented with 1% FBS and 50 μM Verapamil, Sigma V4629) and immediately used.
(§3) One million cells were resuspended in the assay buffer and 1 μCi of IBz-A (with or without 1000 fold cold competitor) was added to the cell. […] Cells were resuspended in the cold assay buffer ([…]) and stored in the ice until analyzed. Cells were washed twice with cold assay buffer and the radioactivity was measured by LKB Wallac gamma counter (1282 compugamma CS).

ALDH [2] = target: T1, ALDH (Mus musculus, UniProt P24549); test: In vitro radio uptake assay for ALDH activity, L1210/cpa cells; format: cell-based, murine; details: L1210/cpa (ALDH^hi) cells; 1 μCi, 37° C., 30 mins; radioactivity (CPM) by gamma counter; FIG. 1
T1 construct: was tested for specific uptake by ALDH-expressing cell lines (K562 and L1210/cpa); endogenous in cells; host or cells: L1210/cpa
T1 sequence (P24549 1-501): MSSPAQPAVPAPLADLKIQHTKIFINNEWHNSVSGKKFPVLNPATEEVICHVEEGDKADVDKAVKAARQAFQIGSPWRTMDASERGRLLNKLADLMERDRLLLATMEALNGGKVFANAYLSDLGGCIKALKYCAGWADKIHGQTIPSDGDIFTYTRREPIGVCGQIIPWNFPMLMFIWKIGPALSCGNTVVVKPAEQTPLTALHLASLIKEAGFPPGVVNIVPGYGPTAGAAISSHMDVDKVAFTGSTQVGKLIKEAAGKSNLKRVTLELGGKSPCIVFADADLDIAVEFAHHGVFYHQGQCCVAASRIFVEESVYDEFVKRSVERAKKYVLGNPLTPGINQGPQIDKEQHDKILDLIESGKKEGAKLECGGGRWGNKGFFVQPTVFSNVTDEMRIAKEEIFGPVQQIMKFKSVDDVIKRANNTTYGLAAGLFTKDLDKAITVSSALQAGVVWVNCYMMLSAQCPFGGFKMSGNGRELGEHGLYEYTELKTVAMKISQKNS
Description: as §1, §2, §3

increase of uptake compared with cells treated with DEAB (ALDH inhibitor) (ALDH [2]): more than 5 fold
Structure (SMILES): O=CCNC(=O)c1ccc([125I])cc1 [^125IBz-A]
increase of uptake compared with cells treated with DEAB (ALDH inhibitor) (ALDH [1]): more than 5 fold
